For data set [1] the following is noted: human.
For data set [2] the following is noted: human. The source holds these as a separate data set.
The conditions of data set [3]: human. This is another data set of the same source.
Data set [4] in a line: Highest frequency of moderate liver toxicity observed during clinical trials, expressed as a percentage. [column '% BIOL' in source]. Conditions: human.
For data set [5] the following is noted: human, serum, 4383 h.
The conditions of data set [6]: human. This is another data set of the same source.
Data set [7] can be described thus: Highest frequency of acute liver toxicity observed during clinical trials, expressed as a percentage. [column '% AIGUE' in source]. The note with it: human.
The conditions of data set [8]: human, serum.
The conditions of data set [9]: human, serum. This is another data set of the same source.
The conditions of data set [10]: human. The source holds these as a separate data set.
The conditions of data set [11]: human. This is another data set of the same source.
The conditions of data set [12]: human. The source holds these as a separate data set.
For data set [13] the following is noted: human. This is another data set of the same source.
The conditions of data set [14]: human. The source holds these as a separate data set.
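Wherever Hepatotoxicity (association with vascular disease) is given: count of indexed literature references reporting vascular liver injury in humans, e.g. peliosis hepatitis, hepatic veno-occlusive disease or Budd-Chiari syndrome.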
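Wherever Hepatotoxicity (benign tumour) is given: value is a count of indexed literature references citing a benign tumour confirmed by histopathology.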
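Wherever Hepatotoxicity (choleostasis) is given: human cholestatic liver injury, shown by histopathology or by peak ALT or AST elevation over alkaline phosphatase ratio below 2, value counts indexed literature reports.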
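Wherever Hepatotoxicity (chronic liver disease) is given: chronic liver injury confirmed by histopathology or persistently raised serum aminotransferase activity beyond 6 months, value given as the count of indexed literature references.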
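Wherever Hepatotoxicity (cirrhosis) is given: value is a count of indexed literature references reporting cirrhosis confirmed by histopathology.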
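Wherever Hepatotoxicity (cytolytic) is given: human cytolytic liver injury, shown by histopathology or by a ratio above 5 of peak ALT or AST elevation to alkaline phosphatase elevation, value counts indexed references.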
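Wherever Hepatotoxicity (granulomatous hepatitis) is given: value is a count of indexed literature references reporting granulomatous liver disease confirmed by histopathology.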
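Wherever Hepatotoxicity (malignant tumour) is given: malignant tumour confirmed by histopathology, value gives the count of indexed literature references reporting it.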
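Wherever Hepatotoxicity (severe hepatitis) is given: human clinical data: severe hepatitis, meaning potentially life-threatening liver failure or clinically observed cases, the value counts how many indexed literature references report it.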
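Wherever Hepatotoxicity (steatosis) is given: steatosis confirmed by histopathology, value is the count of indexed references.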

Take BEMIPARIN SODIUM: the “Hepatotoxicity (cytolytic)” value in data set [1] is 0. Besides, the “Hepatotoxicity (granulomatous hepatitis)” value in data set [2] is given as 0. Moreover, the “Hepatotoxicity (malignant tumour)” value in data set [3] turned out to be 0. Further, the “Hepatotoxicity (moderate)” value in data set [4] is 0%; in [8], 1. The “Hepatotoxicity (chronic liver disease)” value in [5] stood at 0. In data set [6], the “Hepatotoxicity (benign tumour)” value was found to be 0. Moreover, the “Hepatotoxicity (acute)” value in data set [7] is 0%; in [9], 0. Moreover, the “Hepatotoxicity (severe hepatitis)” value in [10] is 0. For the same compound, the “Hepatotoxicity (association with vascular disease)” value in data set [11] was determined as 0. In addition, the “Hepatotoxicity (choleostasis)” value in data set [12] was determined as 0. In [13], the “Hepatotoxicity (cirrhosis)” value came to 0. Besides, the “Hepatotoxicity (steatosis)” value in [14] was 0.

For the compound `CO/N=C(\C(=O)N[C@@H]1C(=O)N2C(C(=O)[O-])=C(C[n+]3cccc4c3CCC4)CS[C@H]12)c1csc(N)n1` [CEFPIROME], in data set [1], the “Hepatotoxicity (cytolytic)” value was determined as 0. Also, in [2], the “Hepatotoxicity (granulomatous hepatitis)” value came out at 0. Further, the “Hepatotoxicity (malignant tumour)” value in data set [3] is reported as 0. Further, the “Hepatotoxicity (moderate)” value in data set [4] was found to be 33.3%; in data set [8], 62. The “Hepatotoxicity (chronic liver disease)” value in data set [5] is 0. Besides, the “Hepatotoxicity (benign tumour)” value in data set [6] is recorded as 0. Besides, the “Hepatotoxicity (acute)” value came out at 0% in [7] and 0 in data set [9]. Besides, the “Hepatotoxicity (severe hepatitis)” value in data set [10] is given as 0. Moreover, the “Hepatotoxicity (association with vascular disease)” value in data set [11] is reported as 0. In data set [12], the “Hepatotoxicity (choleostasis)” value stood at 0. Also, in [13], the “Hepatotoxicity (cirrhosis)” value came to 0. In addition, the “Hepatotoxicity (steatosis)” value in data set [14] amounted to 0.

Turning to `COc1ccc(CCN(C)CCCOc2ccc(S(=O)(=O)c3c(C(C)C)cn4ccccc34)cc2)cc1OC` [FANTOFARONE], in [1], the “Hepatotoxicity (cytolytic)” value stood at 0. In addition, in [2], the “Hepatotoxicity (granulomatous hepatitis)” value is 0. Moreover, in data set [3], the “Hepatotoxicity (malignant tumour)” value is on record as 0. Further, the “Hepatotoxicity (moderate)” value in [4] was determined as 2.7%; in [8], 1. In addition, the “Hepatotoxicity (chronic liver disease)” value in [5] is listed as 0. Also, the “Hepatotoxicity (benign tumour)” value in [6] turned out to be 0. Also, the “Hepatotoxicity (acute)” value in data set [7] is 0%; in [9], 0. For the same compound, the “Hepatotoxicity (severe hepatitis)” value in data set [10] was found to be 0. The “Hepatotoxicity (association with vascular disease)” value in data set [11] stood at 0. Moreover, the “Hepatotoxicity (choleostasis)” value in data set [12] turned out to be 0. Besides, in data set [13], the “Hepatotoxicity (cirrhosis)” value is 0. Further, the “Hepatotoxicity (steatosis)” value in data set [14] amounted to 0.

As for `CN[C@@H]1[C@@H](O)[C@@H](O[C@@H]2[C@@H](O)[C@H](O[C@H]3O[C@H](CN)[C@@H](O)[C@H](O)[C@H]3O)[C@@H](N)C[C@H]2NC(=O)[C@@H](O)CN)OC[C@]1(C)O` [ISEPAMICIN], the “Hepatotoxicity (cytolytic)” value in data set [1] is given as 0. Further, the “Hepatotoxicity (granulomatous hepatitis)” value in data set [2] was 0. Besides, the “Hepatotoxicity (malignant tumour)” value in [3] is 0. Moreover, the “Hepatotoxicity (moderate)” value amounted to 30% in [4] and 22 in data set [8]. In addition, the “Hepatotoxicity (chronic liver disease)” value in data set [5] was found to be 0. In addition, in data set [6], the “Hepatotoxicity (benign tumour)” value was determined as 0. Besides, the figures for the “Hepatotoxicity (acute)” value in [7] and in data set [9] were 0% and 0, respectively. For the same compound, the “Hepatotoxicity (severe hepatitis)” value in data set [10] is given as 0. For the same compound, in data set [11], the “Hepatotoxicity (association with vascular disease)” value is 0. In [12], the “Hepatotoxicity (choleostasis)” value is given as 0. Moreover, in data set [13], the “Hepatotoxicity (cirrhosis)” value is 0. Moreover, the “Hepatotoxicity (steatosis)” value in [14] is reported as 0.

Take `CO/N=C(\C(=O)N[C@@H]1C(=O)N2C(C(=O)[O-])=C(C[N+]34CCC(C(N)=O)(CC3)CC4)CS[C@H]12)c1nsc(N)n1` [CEFCLIDIN]: in [1], the “Hepatotoxicity (cytolytic)” value was found to be 0. Besides, the “Hepatotoxicity (granulomatous hepatitis)” value in data set [2] was found to be 0. In addition, the “Hepatotoxicity (malignant tumour)” value in data set [3] came out at 0. In addition, the “Hepatotoxicity (moderate)” value is on record as 40% in data set [4] and 49 in data set [8]. Besides, in data set [5], the “Hepatotoxicity (chronic liver disease)” value stood at 0. For the same compound, in data set [6], the “Hepatotoxicity (benign tumour)” value turned out to be 0. Also, the “Hepatotoxicity (acute)” value in data set [7] is on record as 0%; in data set [9], 0. The “Hepatotoxicity (severe hepatitis)” value in data set [10] amounted to 1. For the same compound, the “Hepatotoxicity (association with vascular disease)” value in data set [11] is 0. The “Hepatotoxicity (choleostasis)” value in data set [12] came out at 0. Moreover, in data set [13], the “Hepatotoxicity (cirrhosis)” value is listed as 0. In addition, in data set [14], the “Hepatotoxicity (steatosis)” value is reported as 0.

`CC(C)(C#N)c1cc(Cn2cncn2)cc(C(C)(C)C#N)c1` [ANASTROZOLE]: the “Hepatotoxicity (cytolytic)” value in [1] was 0. Also, the “Hepatotoxicity (granulomatous hepatitis)” value in data set [2] stood at 0. Further, the “Hepatotoxicity (malignant tumour)” value in data set [3] is listed as 0. In addition, the “Hepatotoxicity (moderate)” value in data set [4] is recorded as 0%; in [8] it was 1. In data set [5], the “Hepatotoxicity (chronic liver disease)” value is 0. In data set [6], the “Hepatotoxicity (benign tumour)” value is on record as 0. Besides, the figures for the “Hepatotoxicity (acute)” value in data set [7] and in data set [9] were 0% and 0, respectively. Moreover, the “Hepatotoxicity (severe hepatitis)” value in data set [10] worked out at 0. Besides, in [11], the “Hepatotoxicity (association with vascular disease)” value came to 0. For the same compound, the “Hepatotoxicity (choleostasis)” value in data set [12] is listed as 0. In addition, the “Hepatotoxicity (cirrhosis)” value in data set [13] came to 0. The “Hepatotoxicity (steatosis)” value in data set [14] is 0.

Consider `CSc1ccc(C(=O)c2[nH]c(=O)[nH]c2C)cc1` [ENOXIMONE], for which the “Hepatotoxicity (cytolytic)” value in data set [1] is recorded as 0. Further, the “Hepatotoxicity (granulomatous hepatitis)” value in data set [2] is given as 0. For the same compound, the “Hepatotoxicity (malignant tumour)” value in data set [3] was 0. Also, the “Hepatotoxicity (moderate)” value is 6% in [4] and 3 in data set [8]. Moreover, in data set [5], the “Hepatotoxicity (chronic liver disease)” value worked out at 0. For the same compound, the “Hepatotoxicity (benign tumour)” value in data set [6] was determined as 0. Moreover, the “Hepatotoxicity (acute)” value in data set [7] turned out to be 0%; in [9], 0. In addition, in [10], the “Hepatotoxicity (severe hepatitis)” value was found to be 0. In addition, in [11], the “Hepatotoxicity (association with vascular disease)” value is 0. Further, the “Hepatotoxicity (choleostasis)” value in data set [12] worked out at 0. Also, the “Hepatotoxicity (cirrhosis)” value in data set [13] is recorded as 0. Also, the “Hepatotoxicity (steatosis)” value in data set [14] was 0.

Regarding `Nc1nc2c(ncn2COCCO)c(=O)[nH]1` [ACYCLOVIR], in data set [1], the “Hepatotoxicity (cytolytic)” value is 1. The “Hepatotoxicity (granulomatous hepatitis)” value in data set [2] is 0. Further, in [3], the “Hepatotoxicity (malignant tumour)” value was found to be 0. Moreover, the “Hepatotoxicity (moderate)” value is given as 50% in [4] (Liver) and 18 in [8]. The “Hepatotoxicity (chronic liver disease)” value in data set [5] was 0. Moreover, the “Hepatotoxicity (benign tumour)” value in [6] came to 0. In addition, the “Hepatotoxicity (acute)” value turned out to be 1.9% in data set [7] (Liver) and 1 in data set [9]. Also, the “Hepatotoxicity (severe hepatitis)” value in [10] (Liver) was determined as 0. In addition, the “Hepatotoxicity (association with vascular disease)” value in data set [11] came to 0. In addition, the “Hepatotoxicity (choleostasis)” value in data set [12] is recorded as 0. For the same compound, the “Hepatotoxicity (cirrhosis)” value in data set [13] came to 0. In [14], the “Hepatotoxicity (steatosis)” value amounted to 0.

`COc1ccc(CCN(C)CCCC(C#N)(c2cc(OC)c(OC)c(OC)c2)C(C)C)cc1OC` (stereo not drawn) [GALLOPAMIL]: the “Hepatotoxicity (cytolytic)” value in data set [1] turned out to be 0. The “Hepatotoxicity (granulomatous hepatitis)” value in data set [2] worked out at 0. Moreover, the “Hepatotoxicity (malignant tumour)” value in data set [3] was determined as 0. Also, the “Hepatotoxicity (moderate)” value in [4] is 4%; in [8], 1. Moreover, in data set [5], the “Hepatotoxicity (chronic liver disease)” value is 0. For the same compound, the “Hepatotoxicity (benign tumour)” value in data set [6] came to 0. Further, the “Hepatotoxicity (acute)” value in data set [7] is 0%; in data set [9] it was 0. Besides, the “Hepatotoxicity (severe hepatitis)” value in data set [10] was determined as 0. For the same compound, the “Hepatotoxicity (association with vascular disease)” value in [11] came to 0. In addition, the “Hepatotoxicity (choleostasis)” value in [12] was found to be 0. The “Hepatotoxicity (cirrhosis)” value in data set [13] worked out at 0. Further, the “Hepatotoxicity (steatosis)” value in data set [14] was found to be 0.

With `CO[C@H]1Cc2c(O)cc(O)cc2O[C@@H]1c1ccc(O)c(O)c1` [MECIADANOL], the “Hepatotoxicity (cytolytic)” value in data set [1] came to 0. Moreover, in data set [2], the “Hepatotoxicity (granulomatous hepatitis)” value worked out at 0. In [3], the “Hepatotoxicity (malignant tumour)” value came to 0. Besides, the “Hepatotoxicity (moderate)” value in [4] came out at 34.8%; in data set [8], 1. Moreover, the “Hepatotoxicity (chronic liver disease)” value in data set [5] was 0. Besides, the “Hepatotoxicity (benign tumour)” value in [6] stood at 0. Also, the “Hepatotoxicity (acute)” value in data set [7] is given as 0%; in data set [9], 0. Further, the “Hepatotoxicity (severe hepatitis)” value in [10] stood at 0. In addition, in data set [11], the “Hepatotoxicity (association with vascular disease)” value is on record as 0. Also, in [12], the “Hepatotoxicity (choleostasis)” value stood at 0. The “Hepatotoxicity (cirrhosis)” value in data set [13] is 0. In [14], the “Hepatotoxicity (steatosis)” value was 0.

On to `CC=CC1=C(C(=O)O)N2C(=O)[C@@H](NC(=O)[C@H](N)c3ccc(O)cc3)[C@H]2SC1` [CEFPROZIL], for which the “Hepatotoxicity (cytolytic)” value in [1] is 0. The “Hepatotoxicity (granulomatous hepatitis)” value in [2] amounted to 0. Further, in [3], the “Hepatotoxicity (malignant tumour)” value is recorded as 0. The “Hepatotoxicity (moderate)” value is on record as 25% in data set [4] and 42 in [8]. Also, the “Hepatotoxicity (chronic liver disease)” value in data set [5] stood at 0. In addition, the “Hepatotoxicity (benign tumour)” value in data set [6] worked out at 0. Besides, the “Hepatotoxicity (acute)” value in data set [7] stood at 0.6%; in [9], 1. Moreover, in data set [10], the “Hepatotoxicity (severe hepatitis)” value was determined as 0. Besides, the “Hepatotoxicity (association with vascular disease)” value in data set [11] was found to be 0. Also, the “Hepatotoxicity (choleostasis)” value in [12] was found to be 1. For the same compound, the “Hepatotoxicity (cirrhosis)” value in data set [13] is listed as 0. Also, the “Hepatotoxicity (steatosis)” value in [14] worked out at 0.

Turning to NYSTATIN, the “Hepatotoxicity (cytolytic)” value in data set [1] worked out at 1. Also, the “Hepatotoxicity (granulomatous hepatitis)” value in data set [2] worked out at 0. Also, the “Hepatotoxicity (malignant tumour)” value in data set [3] is 0. Besides, the results for the “Hepatotoxicity (moderate)” value in data set [4] and in data set [8] were 33.3% and 3, respectively. The “Hepatotoxicity (chronic liver disease)” value in data set [5] came out at 0. The “Hepatotoxicity (benign tumour)” value in data set [6] was found to be 0. Moreover, the results for the “Hepatotoxicity (acute)” value in data set [7] and in data set [9] were 0% and 1, respectively. In addition, the “Hepatotoxicity (severe hepatitis)” value in data set [10] was 0. Moreover, the “Hepatotoxicity (association with vascular disease)” value in data set [11] is recorded as 0. For the same compound, the “Hepatotoxicity (choleostasis)” value in data set [12] worked out at 0. Further, the “Hepatotoxicity (cirrhosis)” value in [13] came out at 0. Moreover, in data set [14], the “Hepatotoxicity (steatosis)” value amounted to 0.
